Among the data in publication PMC6382696, “Drug Repurposing: The Anthelmintics Niclosamide and Nitazoxanide Are Potent TMEM16A Antagonists That Fully Bronchodilate Airways” (Frontiers in Pharmacology, 2019) are IC50, remaining activity and inhibition values, retold here.

Read-outs that look alike come from different tables or passages of the source.

The target in this experiment is T1, hTMEM16A (abc) (Homo sapiens, UniProt Q5XXA6, DEL476-501).
T1 sequence (Q5XXA6 with tags, fused parts or gaps isoform Q5XXA6-5 DEL539-564): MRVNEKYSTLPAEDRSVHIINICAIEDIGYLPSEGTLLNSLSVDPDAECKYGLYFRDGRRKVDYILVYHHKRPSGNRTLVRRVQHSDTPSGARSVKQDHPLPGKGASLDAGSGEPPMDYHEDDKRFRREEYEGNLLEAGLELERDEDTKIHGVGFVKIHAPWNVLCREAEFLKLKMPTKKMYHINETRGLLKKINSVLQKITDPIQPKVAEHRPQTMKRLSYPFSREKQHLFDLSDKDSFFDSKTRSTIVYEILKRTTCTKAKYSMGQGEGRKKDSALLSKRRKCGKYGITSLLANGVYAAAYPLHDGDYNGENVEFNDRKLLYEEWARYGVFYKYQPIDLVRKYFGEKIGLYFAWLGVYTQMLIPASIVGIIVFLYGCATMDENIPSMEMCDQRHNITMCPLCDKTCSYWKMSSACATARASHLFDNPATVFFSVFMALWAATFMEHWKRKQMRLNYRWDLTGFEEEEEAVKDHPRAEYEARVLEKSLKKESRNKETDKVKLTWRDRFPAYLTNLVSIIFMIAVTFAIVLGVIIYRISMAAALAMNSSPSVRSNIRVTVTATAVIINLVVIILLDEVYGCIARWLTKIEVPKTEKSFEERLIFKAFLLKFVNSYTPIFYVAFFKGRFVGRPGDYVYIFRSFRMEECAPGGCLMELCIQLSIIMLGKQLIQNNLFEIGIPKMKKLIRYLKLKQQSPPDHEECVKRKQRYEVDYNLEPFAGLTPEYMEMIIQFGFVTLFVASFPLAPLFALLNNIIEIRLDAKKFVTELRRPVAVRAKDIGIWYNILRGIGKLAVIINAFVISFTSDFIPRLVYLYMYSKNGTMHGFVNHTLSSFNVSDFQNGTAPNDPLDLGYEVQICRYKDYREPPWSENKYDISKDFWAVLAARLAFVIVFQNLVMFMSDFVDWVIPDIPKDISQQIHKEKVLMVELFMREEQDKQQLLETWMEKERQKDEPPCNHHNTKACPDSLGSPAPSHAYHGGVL
Nature of the experiment: TMEM16A halide-sensitive YFP (eYFP) high-throughput screening assay. It counts as cell-based. On the set-up: expressed in transfected cells. Particulars: for remaining activity at 5 µM / inhibition at 5 µM: 5 μM compound; for remaining activity at 5 µM: POC 0 = full block by benzbromarone, read-out: POC (percent of control) halide-sensitive YFP response in HTS; for inhibition at 5 µM: read-out: % inhibition of halide-sensitive YFP response during HTS. The method, then: The High-Throughput-Screening clone HEK293T:eYFP: TMEM16A(abc) stably expressing eYFP (H149Q,I153L) and human TMEM16A(abc) was generated by stable transfection followed by functional clone selection. HEK293T:eYFP (H149Q,I153L) was cultivated in propagation medium DMEM (PAN #P04-03550) containing 10% FBS (PAN #3302-P281402), 1x Pen/Strep (PAN #P06-07100), 1x L-glutamine (PAN #P04-80100), 10 mM HEPES (PAN #P05-01100) and 0.5 μg/ml puromycin (Sigma #P7255) and transfected with pIREShyg3:huTMEM16A(abc). Stable cell pool was generated by cultivation in propagation medium containing 0.5 μg/ml puromycin and 200 μg/ml hygromycin B for 20 days. Cell pool was then diluted in the same medium and seeded in 384-well microtiter plates. Grown clones were replicated into daughter plates using a CyBio Felix pipetting platform (Analytik Jena AG). Daughter plates were analyzed using the eYFP assay essentially as described in the HTS protocol below using a FLIPR-Tetra. Clones showing maximal quenching of eYFP fluorescence intensity after addition of trigger solution (assay buffer containing NaI and ionomycin) were selected for propagation from the mother plate and further characterized with regard to HTS assay development performance parameters including inhibition by the benchmark compound benzbromarone, S/B and relevant HTS quality control statistics (Z-factor, Z′-factor, RZ-factor, RZ′-factor). One clone was finally selected as HTS clone and used throughout the entire HTS campaign to identify TMEM16A antagonists.
For the HTS screen, the screening cell line HEK293T:eYFP(H149Q,I153L):TMEM16A(abc) stably expressing halide sensitive YFP (eYFP (H149Q,I153L)) and human TMEM16A(abc) were propagated in DMEM (PAN #P04-03550) containing 10% FBS (PAN #3302-P281402), 1x Pen/Strep (PAN #P06-07100), 1x L-glutamine (PAN #P04-80100), 10 mM HEPES (PAN #P05-01100), 0.5 μg/ml puromycin (Sigma #P7255), and 150 μg/ml hygromycin B (Life Technologies #10687-010) in Corning TC-treated flasks. Twenty four hours prior to the assay 11,000 cells were seeded per well in 30 μl assay plating medium [propagation medium containing 0.01% Pluronic F-68 (PAN #P08-2100)] in Corning CellBIND 384-Well Flat Clear Bottom Black Polystyrene Microplates (Corning #3683) and cultivated for 24 h at 37°C. Before initiating the fully automated and scheduled HTS sequence, cell plates were transferred to an incubator and stored at RT and 0% CO2. Library compounds were delivered in Greiner 384 PP plates (Greiner #784201) containing 1mM compound dissolved in DMSO in columns 1–22 and DMSO in columns 23 and 24 and were stored in a stacker at RT. Further dilutions of compounds were generated by fully automated liquid handling using a CyBio 384-well/25 μl pipetting head (Analytik Jena AG) by diluting 0.5 μl compound (1 mM in DMSO) in 20 μl assay buffer [1xHBSS (Life Technologies #14025050) containing 10 mM HEPES (PAN #P05-01100) and 0.01% Pluronic F-68 (PAN #P08-2100), adjusted to pH 7.4] in Greiner 384 PP plates (Greiner #784201). Intermediate compound plates contained 25 μM library compounds in assay buffer containing 2.5% DMSO in columns 1–22, assay buffer containing 2.5% DMSO as neutral control in column 23 and 100 μM Benzbromarone (Sigma #B5774) in assay buffer containing 2.5% DMSO in column 24 as ligand control (benchmark antagonist) and were stored in a stacker at RT. Simultaneous to compound dilution medium was aspirated from cell plates using a Biotek 405 microplate washer followed by washing the cells twice with 65 μl/well assay buffer. With the final aspiration of assay buffer, the residual volume was adjusted to 15 μl. […] Cell plates were incubated for 30 min at RT and 0% CO2. After incubation cell plates were transferred to a FLIPR-Tetra and 25 μl trigger solution [assay buffer containing 20 mM sodium iodide (Sigma #383112) and 4 μM ionomycin (Sigma #I0634; stock solution 10 mM in DMSO)] was added before reading iodide-quenching of eYFP fluorescence intensity. […]

The mark [1] stands for this setting: HEK293T:eYFP:TMEM16A(abc), 30 min preincubation, 10 mM iodide, 2 μM ionomycin, read-out: IC50 in the eYFP HTS assay.

As to `O=C(Nc1ncc([N+](=O)[O-])s1)c1cccs1` [NTTP], the IC50 (supplement, read-out: IC50, TMEM16A (abc) eYFP HTS assay) turned out to be 2840 nM.

In the case of `O=C(Nc1ccc([N+](=O)[O-])cc1Cl)c1cc(Cl)ccc1O` [Niclosamide], the remaining activity at 5 µM came to 69 ± 3.3% and the inhibition at 5 µM was found to be 31%. Further, the IC50 under setting [1] was 140 nM.

Consider `N#Cc1c(C(F)(F)F)cc(O)n2c1nc1ccccc12` [1PBC], for which the remaining activity at 5 µM is 74.8% and the inhibition at 5 µM is 25.2%. Further, for the setting “22-point dose-response, read-out: IC50, TMEM16A eYFP assay dose response of the HTS campaign”, the IC50 stood at 1050 nM.

With `COc1cc([N+](=O)[O-])ccc1NC(=O)c1cc(Cl)c2ccccc2c1O` [Cpd 4], the remaining activity at 5 µM was 61.1 ± 7.8% and the inhibition at 5 µM was determined as 38.9%. For the same compound, the IC50 under setting [1] is 970 nM.

By IC50 is commonly meant the concentration at which inhibition is half-maximal. For orientation: inhibition means the change of the read-out against control, counted positive when it falls.
